Test results from patent US20200045974A1, “Substituted Oxadiazoles for Combating Phytopathogenic Fungi” (BASF SE, priority 2017, published 2020).

Experiments:
Format in all cases: in vivo
Phakopsora pachyrhizi [1] = assay: Curative control of soy bean rust on soy beans; conditions: 32 ppm active compound, soy bean seedlings sprayed after inoculation, assessed after 14 days; untreated plants 100%
Procedure: (§1) This mixture was added to 25 mg of the compound to give a total of 5 mL. Water was then added to total volume of 100 mL. This stock solution was diluted with the described solvent-emulsifier-water mixture to the given concentration.
II.1) Curative Control of Soy Bean Rust on Soy Beans Caused by Phakopsora pachyrhizi
Leaves of pot-grown soy bean seedlings were inoculated with spores of Phakopsora pachyrhizi. To ensure the success of the artificial inoculation, the plants were transferred to a humid chamber with a relative humidity of about 95% and 20 to 24° C. for 24 hours. The next day the plants were cultivated for 3 days in a greenhouse chamber at 23 to 27° C. and a relative humidity between 60 and 80%. Then the plants were sprayed to run-off with an aqueous suspension, containing the concentration of active ingredient or their mixture as described below. The plants were allowed to air-dry. Then the trial plants were cultivated for 14 days in a greenhouse chamber at 23 to 27° C. and a relative humidity between 60 and 80%. The extent of fungal attack on the leaves was visually assessed as % diseased leaf area.

Phakopsora pachyrhizi [2] = assay: Protective control of soy bean rust on soy beans; conditions: 32 ppm active compound, soy bean seedlings sprayed 2 days before inoculation, assessed after fourteen days; untreated plants 100%
Procedure: as §1
II.2) Protective Control of Soy Bean Rust on Soy Beans Caused by Phakopsora pachyrhizi
Leaves of pot-grown soy bean seedlings were sprayed to run-off with an aqueous suspension, containing the concentration of active ingredient or their mixture as described below. The plants were allowed to air-dry. The trial plants were cultivated for 2 day in a greenhouse chamber at 23 to 27° C. and a relative humidity between 60 and 80%.Then the plants were inoculated with spores of Phakopsora pachyrhizi. To ensure the success the artificial inoculation, the plants were transferred to a humid chamber with a relative humidity of about 95% and 20 to 24° C. for 24 hours. The trial plants were cultivated for fourteen days in a greenhouse chamber at 23 to 27° C. and a relative humidity between 60 and 80%. The extent of fungal attack on the leaves was visually assessed as % diseased leaf area.

Puccinia recondite = assay: Curative control of brown rust on wheat; conditions: 32 ppm active compound, wheat seedlings sprayed after inoculation, assessed after 8 days; untreated plants 90%
Procedure: as §1
II.3) Curative Control of Brown Rust on Wheat Caused by Puccinia Recondite
The first two developed leaves of pot-grown wheat seedling were dusted with spores of Puccinia recondite. To ensure the success the artificial inoculation, the plants were transferred to a humid chamber without light and a relative humidity of 95 to 99% and 20 to 24° C. for 24 hours. The next day the plants were cultivated for 3 days in a greenhouse chamber at 20 to 24° C. and a relative humidity between 65 and 70%. Then the plants were sprayed to run-off with an aqueous suspension, containing the concentration of active ingredient or their mixture as described below. The plants were allowed to air-dry. Then the trial plants were cultivated for 8 days in a greenhouse chamber at 20 to 24° C. and a relative humidity between 65 and 70%. The extent of fungal attack on the leaves was visually assessed as % diseased leaf area.

`O=C(NC12CC(C1)C2)c1ccc(-c2noc(C(F)(F)F)n2)cc1` [Ex-1, N-(1-bicyclo[1.1.1]pentanyl)-4-[5-(trifluoromethyl)-1,2,4-oxadiazol-3-yl]benzamide] was tested, and the diseased leaf area (Phakopsora pachyrhizi [1]) was 0%, the diseased leaf area (Phakopsora pachyrhizi [2]) was 0% and the diseased leaf area (Puccinia recondite) was 2%.
